Key:
hPR = molecular target: T1, hPR (Homo sapiens, UniProt P06401); assay: T47D alkaline phosphatase assay, agonist mode; assay type: cell-based; settings: T47D human breast cancer cells; for Emax: T47D, read-out: hPR Agonist T47D cells Eff. (%)
T1 sequence (P06401 679-933 limits assumed): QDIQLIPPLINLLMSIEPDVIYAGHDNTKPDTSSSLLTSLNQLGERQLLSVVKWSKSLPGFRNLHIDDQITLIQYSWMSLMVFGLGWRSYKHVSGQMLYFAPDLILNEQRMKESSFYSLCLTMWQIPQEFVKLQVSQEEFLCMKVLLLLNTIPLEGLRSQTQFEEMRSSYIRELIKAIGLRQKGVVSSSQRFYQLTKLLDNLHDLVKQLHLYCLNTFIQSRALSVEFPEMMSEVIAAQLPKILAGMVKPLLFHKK

[1] = molecular target: T2, human androgen receptor (hAR) (Homo sapiens, UniProt P10275); assay: hAR cotransfection assay (potency ratio to hPR); assay type: cell-based; settings: receptor-selectivity potency ratio, cotransfection assays
T2 sequence (P10275 1-920): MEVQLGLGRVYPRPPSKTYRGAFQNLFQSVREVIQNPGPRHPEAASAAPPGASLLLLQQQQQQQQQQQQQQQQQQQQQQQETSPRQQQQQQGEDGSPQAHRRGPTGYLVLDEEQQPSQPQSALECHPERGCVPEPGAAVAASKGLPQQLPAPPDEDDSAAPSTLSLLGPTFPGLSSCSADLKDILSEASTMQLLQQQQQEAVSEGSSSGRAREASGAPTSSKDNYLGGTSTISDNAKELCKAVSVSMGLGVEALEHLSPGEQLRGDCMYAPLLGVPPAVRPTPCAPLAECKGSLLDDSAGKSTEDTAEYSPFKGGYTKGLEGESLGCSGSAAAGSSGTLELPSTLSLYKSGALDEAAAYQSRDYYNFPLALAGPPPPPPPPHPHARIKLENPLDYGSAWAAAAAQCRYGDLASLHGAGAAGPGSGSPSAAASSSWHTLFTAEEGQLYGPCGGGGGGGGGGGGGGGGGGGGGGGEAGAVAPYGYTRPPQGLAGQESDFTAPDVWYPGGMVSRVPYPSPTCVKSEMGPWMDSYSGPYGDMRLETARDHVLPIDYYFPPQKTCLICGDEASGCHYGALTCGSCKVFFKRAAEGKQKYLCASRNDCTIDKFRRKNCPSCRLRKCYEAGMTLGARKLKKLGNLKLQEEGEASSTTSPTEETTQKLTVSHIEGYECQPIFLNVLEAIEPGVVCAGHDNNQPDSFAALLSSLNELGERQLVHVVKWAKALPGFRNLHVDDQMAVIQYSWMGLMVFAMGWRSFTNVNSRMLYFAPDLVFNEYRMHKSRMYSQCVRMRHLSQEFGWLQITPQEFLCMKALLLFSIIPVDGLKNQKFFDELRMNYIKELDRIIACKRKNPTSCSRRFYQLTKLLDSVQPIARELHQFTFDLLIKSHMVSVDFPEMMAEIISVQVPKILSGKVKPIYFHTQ

immature rabbits = assay: McPhail (Clauberg) rabbit assay of progestational activity; assay type: in vivo; settings: Oryctolagus cuniculus; estradiol-primed immature rabbits; glandular changes of the uterus; read-out: potency (MAD in mg/kg), minimum active dose
Experimental: The superiority of the 7,9-difluoro analogue compounds of the present invention was further characterized utilizing the McPhail rabbit model according to the following illustrative Examples. The Clauberg or McPhail assay is a classic assay utilizing rabbits to measure progestational activity. […] In this assay, immature rabbits are treated initially with estradiol, which induces growth in the uterus. This is followed by a progestin, which causes a large change in the glandular content of the uterus. It is this change in the glandular component which is a measure of the progestational activity of a progestin. The measurement of these glandular changes is carried out histologically using stained sections of the uterus. The in vivo comparison between the new 7,9-difluoro compounds and analogues with substitution patterns different from 7,9-difluoro (U.S. Pat. Nos. 5,693,646 and 5,696,127) is tabulated in Tables 7 and 8. The in vivo potency of the progestins is presented as the minimum active dose (MAD).

[2] = system: ovariectomized female rats; assay: Multi-endpoint adult rat model, uterus/breast tissue-selectivity; assay type: in vivo; settings: ratio of relative efficacy to MPA in uterus verse in breast tissue at the same highest dose tested; estrone-treated ovariectomized rats, three days

| EC50 (hPR) [nM] | Emax (hPR) [%] | hAR EC50 or IC50/hPR EC50 [1] | SMILES | minimal effective dose (immature rabbits) [mg/kg] | uterus/breast tissue-selectivity [2] |
| --- | --- | --- | --- | --- | --- |
| 35 | 62 | 37 | CC1=CC(C)(C)Nc2ccc3c(c21)C(c1ccccc1)Oc1c(F)cc(F)cc1-3 (racemic) [Compound 33, (±)-7,9-difluoro-5-phenyl-1,2-dihydro-2,2,4-trimethyl-5H-chromeno[3,4-f]quinoline] | – | – |
| 34 | 60 | 8.5 | CC1=CC(C)(C)Nc2ccc3c(c21)C(c1cccc(C)c1)Oc1c(F)cc(F)cc1-3 (racemic) [Compound 34, (±)-7,9-difluoro-5-(3-methylphenyl)-1,2-dihydro-2,2,4-trimethyl-5H-chromeno[3,4-f]quinoline] | 1 | – |
| 130 | 50 | 558 | CC1=CC(C)(C)Nc2ccc3c(c21)C(c1ccc(Cl)c(C)c1)Oc1c(F)cc(F)cc1-3 (racemic) [Compound 37, (±)-7,9-difluoro-5-(4-chloro-3-methylphenyl)-1,2-dihydro-2,2,4-trimethyl-5H-chromeno[3,4-f]quinoline] | – | – |
| 42 | 54 | 252 | CC1=CC(C)(C)Nc2ccc3c(c21)C(c1cccc(Cl)c1)Oc1c(F)cc(F)cc1-3 (racemic) [Compound 41, (±)-7,9-difluoro-5-(3-chlorophenyl)-1,2-dihydro-2,2,4-trimethyl-5H-chromeno[3,4-f]quinoline] | 0.75 | – |
| 20 | 61 | 136 | CC1=CC(C)(C)Nc2ccc3c(c21)C(c1cc2ccccc2s1)Oc1c(F)cc(F)cc1-3 (racemic) [Compound 63, (±)-7,9-difluoro-5-(benzo[b]thien-2-yl)-1,2-dihydro-2,2,4-trimethyl-5H-chromeno[3,4-f]quinoline] | – | – |
| 4.6 | 58 | 100 | CC#CC1Oc2c(F)cc(F)cc2-c2ccc3c(c21)C(C)=CC(C)(C)N3 (racemic) [Compound 74, (±)-7,9-difluoro-5-(1-propynyl)-1,2-dihydro-2,2,4-trimethyl-5H-chromeno[3,4-f]quinoline] | – | – |
| 30 | 54 | 320 | CC1=CC(C)(C)Nc2ccc3c(c21)/C(=C/c1ccccc1)Oc1c(F)cc(F)cc1-3 [Compound 10, 7,9-difluoro-5(Z)-benzylidene-1,2-dihydro-2,2,4-trimethyl-5H-chromeno[3,4-f]quinoline] | – | – |
| 49 | 58 | 54 | CC1=CC(C)(C)Nc2ccc3c(c21)/C(=C/c1ccncc1)Oc1c(F)cc(F)cc1-3 [Compound 14, 7,9-difluoro-5(Z)-(4-picolylidene)-1,2-dihydro-2,2,4-trimethyl-5H-chromeno[3,4-f]quinoline] | – | – |
| 19 | 56 | 2 | CC1=CC(C)(C)Nc2ccc3c(c21)/C(=C/c1cccc(F)c1)Oc1c(F)cc(F)cc1-3 [Compound 15, 7,9-difluoro-5(Z)-(3-fluorobenzylidene)-1,2-dihydro-2,2,4-trimethyl-5H-chromeno[3,4-f]quinoline] | 0.18 | – |
| 12 | 62 | 622 | CC1=CC(C)(C)Nc2ccc3c(c21)/C(=C/c1cc(F)ccc1F)Oc1c(F)cc(F)cc1-3 [Compound 17, 7,9-difluoro-5(Z)-(2,5-difluorobenzylidene)-1,2-dihydro-2,2,4-trimethyl-5H-chromeno[3,4-f]quinoline] | 0.25 | 2.7 |
| 17 | 57 | 170 | COc1ccccc1/C=C1\Oc2c(F)cc(F)cc2-c2ccc3c(c21)C(C)=CC(C)(C)N3 [Compound 18, 7,9-difluoro-5(Z)-(2-methoxybenzylidene)-1,2-dihydro-2,2,4-trimethyl-5H-chromeno[3,4-f]quinoline] | 2 | – |
| 8.7 | 65 | >1000 | CC1=CC(C)(C)Nc2ccc3c(c21)/C(=C/c1cc(F)ccc1C)Oc1c(F)cc(F)cc1-3 [Compound 19, 7,9-difluoro-5(Z)-(2-methyl-5-fluorobenzylidene)-1,2-dihydro-2,2,4-trimethyl-5H-chromeno[3,4-f]quinoline] | 0.1 | 3.5 |
| 6.6 | 63 | 8 | CC1=CC(C)(C)Nc2ccc3c(c21)/C(=C/c1ccncc1C)Oc1c(F)cc(F)cc1-3 [Compound 20, 7,9-difluoro-5(Z)-(3-methyl-4-picolylidene)-1,2-dihydro-2,2,4-trimethyl-5H-chromeno[3,4-f]quinoline] | 0.25 | – |
| 7.5 | 63 | 742 | COc1ccc(F)cc1/C=C1\Oc2c(F)cc(F)cc2-c2ccc3c(c21)C(C)=CC(C)(C)N3 [Compound 26, 7,9-difluoro-5(Z)-(2-methoxy-5-fluorobenzylidene)-1,2-dihydro-2,2,4-trimethyl-5H-chromeno[3,4-f]quinoline] | 2 | – |
| 8.7 | 62 | 6 | CC1=CC(C)(C)Nc2ccc3c(c21)/C(=C/Br)Oc1c(F)cc(F)cc1-3 [Compound 29, 7,9-difluoro-5(Z)-bromomethylidene-1,2-dihydro-2,2,4-trimethyl-5H-chromeno[3,4-f]quinoline] | – | – |
| 33 | 66 | 377 | CC1=CC(C)(C)Nc2ccc3c(c21)/C(=C/c1ccsc1)Oc1c(F)cc(F)cc1-3 [Compound 30, 7,9-difluoro-5(Z)-(3-thienylmethylidene)-1,2-dihydro-2,2,4-trimethyl-5H-chromeno[3,4-f]quinoline] | – | – |
| 14 | 66 | 517 | CC1=CC(C)(C)Nc2ccc3c(c21)/C(=C/c1cccs1)Oc1c(F)cc(F)cc1-3 [Compound 31, 7,9-difluoro-5(Z)-(2-thienylmethylidene)-1,2-dihydro-2,2,4-trimethyl-5H-chromeno[3,4-f]quinoline] | – | 3.5 |
